# Data published in US7584718B2, “Growing marine fish in fresh water” (MariCal, Inc., priority 2000, dated 2009).
# Tested on: full-length cation receptor (CaR) from the dogfish shark
# Test: Dogfish shark CaR expressed in human HEK cells, response to ionic composition of extracellular fluid
# Format: cell-based
# Conditions: extracellular fluid bathing HEK cells; range from freshwater to seawater
# Text: Polyvalent cation-sensing receptors (PVCRs) serve as salinity sensors in fish. These receptors are localized to the apical membranes of various cells within the fish's body (e.g., in the gills, intestine, kidney) that are known to be responsible for osmoregulation. A full-length cation receptor (CaR) from the dogfish shark has been expressed in human HEK cells. […] The ionic concentrations responded to encompassed the range which includes the transition from freshwater to seawater. Expression of PVCR mRNA is also modulated in fish after their transfer from freshwater to seawater, and is modulated by PVCR agonists.
row,SMILES,Receptor response to alterations in ionic composition
1,"[Ca+2] [Ca^2+, calcium]",respond to alterations
2,"[Mg+2] [Mg^2+, magnesium]",respond to alterations
3,"[Cl-].[Na+] [NaCl, sodium chloride]",respond to alterations
